In the oligonucleotide strings, read from the 5' end, every base follows the letter of its sugar. An asterisk marks phosphorothioate; unmarked linkages are phosphodiester. Other units and linkages are bracketed, terminal groups are in braces. A string of capitals states the bases alone. e = 2'-O-(2-methoxyethyl) (MOE); [5mC] = 5-methylcytosine; d = 2'-deoxy (DNA)
Key:
ob/ob mice = assay: ob/ob mice: plasma parameters, food consumption, marker gene mRNA; format: in vivo, mouse; details: ob/ob mice; for mRNA expression levels of the Glut4, aP2 and HSL marker genes: 25 mg/kg two times per week
Description: Leptin is a hormone produced by fat cells that regulates appetite. Deficiencies in this hormone in both humans and non-human animals leads to obesity. ob/ob mice have a mutation in the leptin gene which results in obesity and hyperglycemia. As such, these mice are a useful model for the investigation of obesity and diabetes and treatments designed to treat these conditions. ob/ob mice have higher circulating levels of insulin and are less hyperglycemic than db/db mice, which harbor a mutation in the leptin receptor. In accordance with the present invention, the oligomeric compounds of the invention are tested in the ob/ob model of obesity and diabetes.
Seven-week old male C57B1/6J-Lep ob/ob mice (Jackson Laboratory, Bar Harbor, Me.) are fed a diet with a fat content of 10-15% and are subcutaneously injected with the oligomeric compounds of the invention or a control compound at a dose of 25 mg/kg two times per week for 4 weeks. Saline-injected animals, leptin wildtype littermates (i.e. lean littermates) and ob/ob mice fed a standard rodent diet serve as controls. After the treatment period, mice are sacrificed and target levels are evaluated in liver, brown adipose tissue (BAT) and white adipose tissue (WAT). RNA isolation and target RNA expression level quantitation are performed as described by other examples herein.
To assess the physiological effects resulting from modulation of target, the ob/ob mice are evaluated at the end of the treatment period for serum lipids, serum free fatty acids, serum cholesterol (CHOL), liver triglycerides, fat tissue triglycerides and liver enzyme levels. Hepatic steatosis, or clearing of lipids from the liver, is assessed by measuring the liver triglyceride content. Hepatic steatosis is assessed by routine histological analysis of frozen liver tissue sections stained with oil red O stain, which is commonly used to visualize lipid deposits, and counterstained with hematoxylin and eosin, to visualize nuclei and cytoplasm, respectively.
The effects of target modulation on glucose and insulin metabolism are evaluated in the ob/ob mice treated with the oligomeric compounds of the invention. Plasma glucose is measured at the start of the treatment and after 2 weeks and 4 weeks of treatment. Plasma insulin is similarly measured at the beginning of the treatment, and following at 2 weeks and at 4 weeks of treatment. Glucose and insulin tolerance tests are also administered in fed and fasted mice. Mice receive intraperitoneal injections of either glucose or insulin, and the blood glucose and insulin levels are measured before the insulin or glucose challenge and at 15, 20 or 30 minute intervals for up to 3 hours.
The ob/ob mice that receive treatment are evaluated at the end of the treatment period for the effects of target modulation on the expression of genes that participate in lipid metabolism, cholesterol biosynthesis, fatty acid oxidation, fatty acid storage, gluconeogenesis and glucose metabolism. These genes include, but are not limited to, HMG-CoA reductase, acetyl-CoA carboxylase 1 and acetyl-CoA carboxylase 2, camitine palmitoyltransferase I and glycogen phosphorylase, glucose-6-phosphatase and phosphoenolpyruvate carboxykinase 1, lipoprotein lipase and hormone sensitive lipase. mRNA levels in liver and white and brown adipose tissue are quantitated by real-time PCR as described in other examples herein, employing primer/probe sets that are generated using published sequences of each gene of interest.
As described herein, leptin-deficient (ob/ob) mice, leptin receptor-deficient (db/db) mice and diet-induced obesity (DIO) mice are used to model obesity and diabetes. In accordance with the present invention, oligomeric compounds targeting mir-143, mir-131 (also known as mir-9) and mir-203 were tested in the ob/ob and db/db models. […]

T47D cells = assay: Cell cycle assay in T47D cells; format: cell-based, human; details: 150 nM, 48 hours, relative to untreated control
B16-F10 cells = assay: Cell cycle assay in B16-F10 cells; format: cell-based, mouse; details: 150 nM, 48 hours, relative to untreated control
Description: BJ cells were routinely cultured in MEM high glucose with 2 mM L-glutamine and Earle's BSS adjusted to contain 1.5 g/L sodium bicarbonate and supplemented with 10% fetal bovine serum, 0.1 mM non-essential amino acids and 1.0 mM sodium pyruvate (all media and supplements from Invitrogen Life Technologies, Carlsbad, Calif.). B16-F10 cells were routinely cultured in DMEM high glucose (Invitrogen Life Technologies, Carlsbad, Calif.) supplemented with 10% fetal bovine serum (Invitrogen Life Technologies, Carlsbad, Calif.). T47D cells were cultured in DMEM High glucose media (Invitrogen Life Technologies, Carlsbad, Calif.) supplemented with 10% fetal bovine serum. […] Cells were plated on collagen-coated 24-well plates (Falcon-Primaria #3047, BD Biosciences, Bedford, Mass.) at approximately 50,000 cells per well and allowed to attach to wells overnight.
In further studies, additional cell lines were treated with oligomeric compounds targeted against miRNAs to assess the effects of each oligomeric compound on cell cycling. BJ, B16, T47D, and HeLa cells were cultured and transfected as described above. […] T47Dp53 cells are T47D cells that have been transfected with and selected for maintenance of a plasmid that expresses a wildtype copy of the p53 gene (for example, pCMV-p53; Clontech, Palo Alto, Calif.), using standard laboratory procedures. BJ cells were treated with 200 nM of each oligomeric compound, and T47D, T47Dp53, HeLa, and B16 cells were treated with 150 nM of each oligomeric compound. The human foreskin fibroblast BJ cell line represents a non-cancer cell line, while HeLa, T47D, T47Dp53 cells and the mouse melanoma cell line B16-F10 represent cancerous cell lines. For comparison, oligomeric compounds ISIS 183891 (SEQ ID NO: 847) and ISIS 285717 ([…]; herein incorporated as SEQ ID NO: 857), both targeting the kinesin-like 1/Eg5 mRNA, involved in cell cycling, were used as positive controls. The random-mer ISIS 29848 was used as a negative control. Additionally, the oligomeric compounds ISIS Number 25690 ([…]; herein incorporated as SEQ ID NO: 858) and ISIS Number 25691 ([…]; herein incorporated as SEQ ID NO: 859), targeted to nucleotides 3051-3070 and 3085-3104, respectively, of the mRNA encoding the Drosha RNase III (GenBank Accession NM_013235.2, incorporated herein as SEQ ID NO: 860) were also tested. ISIS Number 25690 and ISIS Number 25691 are 5-10-52′-MOE gapmer compounds, 20 nucleotides in length, with phosphorothioate internucleoside linkages throughout the oligomeric compound. All cytidine residues are 5-methylcytidines. Transfections were performed using the methods described herein. Cells were prepared for flow cytometry 48-hours after oligonucleotide treatment. Results of these studies are shown in Table 35, where data are expressed as percentage of cells in each phase relative to the untreated control cells in that phase.

[1] = 25 mg/kg s.c. two times per week, 6 weeks

| Substance | plasma glucose levels (fed) (ob/ob mice; [1]) | plasma glucose levels, fasted state (ob/ob mice; day 19) | % cells in cell cycle phase G1 (T47D cells) | % cells in cell cycle phase G2/M (T47D cells) | % cells in cell cycle phase S (T47D cells) | % cells in cell cycle phase aneuploid (T47D cells) | % cells in cell cycle phase subG1 (T47D cells) | % cells in cell cycle phase G1 (B16-F10 cells) | % cells in cell cycle phase G2/M (B16-F10 cells) | % cells in cell cycle phase S (B16-F10 cells) | % cells in cell cycle phase aneuploid (B16-F10 cells) | % cells in cell cycle phase subG1 (B16-F10 cells) | mRNA expression levels of the Glut4, aP2 and HSL marker genes (ob/ob mice) | plasma cholesterol levels (ob/ob mice; [1]) | plasma triglyceride levels (ob/ob mice; [1]) |
| --- | --- | --- | --- | --- | --- | --- | --- | --- | --- | --- | --- | --- | --- | --- | --- |
| ACTTTCGGTTATCTAGCTTTA [ISIS 327892] (chemistry not given here) [uniform 2′-MOE PS; targets mir-131-2/mir-9] | reduced beginning at approximately four weeks after the start of treatment | significant reductions in plasma glucose levels | – | – | – | – | – | – | – | – | – | – | – | – | – |
| 328759 (antisense eG*eA*eG*eG*eG*dA*dT*dT*dG*dT*dA*dT*dG*dA*dA*e[5mC]*eA*eT*e[5mC]*eT) [compound 328759] | – | – | 86% | 122% | 87% | 223% | 123% | 104% | 110% | 91% | 126% | 132% | – | – | – |
| 327905 (antisense e[5mC]*eA*eG*eA*e[5mC]*eT*e[5mC]*e[5mC]*eG*eG*eT*eG*eG*eA*eA*eT*eG*eA*eA*eG*eG*eA) [compound 327905] | – | – | 97% | 103% | 101% | 164% | 81% | 107% | 106% | 89% | 94% | 142% | – | – | – |
| 327933 (antisense eA*eA*eG*eG*eG*eA*eT*eT*e[5mC]*e[5mC]*eT*eG*eG*eG*eA*eA*eA*eA*e[5mC]*eT*eG*eG*eA*e[5mC]) [compound 327933] | – | – | – | – | – | – | – | 109% | 116% | 84% | 130% | 104% | – | – | – |
| TGAGCTACAGTGCTTCATCTCA [ISIS 327901] (chemistry not given here) [uniform 2′-MOE PS; targets mir-143] | – | – | – | – | – | – | – | – | – | – | – | – | slightly reduced | – | – |
| 327902 (antisense eG*eG*e[5mC]*eT*eG*eT*e[5mC]*eA*eA*eT*eT*e[5mC]*eA*eT*eA*eG*eG*eT*e[5mC]*eA*eG) [compound 327902] | – | – | 75% | 116% | 120% | 162% | 102% | 112% | 98% | 88% | 101% | 151% | – | – | – |
| TGAGCTACAGTGCTTCATCTCA [ISIS 340927] (chemistry not given here) [5-10-7 2′-MOE gapmer PS; targets mature mir-143] | generally slightly lower | – | – | – | – | – | – | – | – | – | – | – | slightly reduced | slightly decrease over time | generally slightly lower |

Reference: US8178506B2, “Oligomeric compounds and compositions for use in modulation of small non-coding RNAs” (Regulus Therapeutics Inc., priority 2003, dated 2012)
